Assay results reported in article PMC4057637, “Efficacy of novel antibacterial compounds targeting histidine kinase YycG protein” (Applied Microbiology and Biotechnology, 2014).
Converted amounts (≈) assume the structure as drawn.

Tests used:
Clinical MRSA strains = experiment: MIC, broth dilution; format: cell-based, S. aureus; details: Staphylococcus aureus; Clinical MRSA strains (n = 5)
Protocol: Bacterial strains S. epidermidis ATCC 12228 (nonbiofilm forming), S. epidermidis ATCC 35984 (biofilm forming), S. aureus ATCC 49230, and S. aureus ATCC 25923 were from the American Type Culture Collection (ATCC, Manassas, USA) and were cultured in tryptic soy broth medium (TSB; Oxoid Ltd., Basingstoke, England). Ten clinical methicillin-resistant staphylococcal isolates, five MRSA isolates and five MRSE isolates, were collected from Huadong Teaching Hospital in Shanghai. Escherichia coli ATCC 25922 was grown in Luria-Bertani (LB) broth. The six compounds used in this study (H2-38, H2-39, H2-57, H2-60, H2-74, and H2-81) were screened from 56 derivatives of compound 2 in which the functional groups were modified, but the thiazolidine core structure was unchanged. The compounds were synthesized by Nanjing University of Technology. To generate the derivative compounds, halogen atoms were introduced into 4-thiazolidinone compounds that contained carboxylic acid moieties of phenoxy-acetic acid, (5-vinyl-furan-2-yl)-benzoic acid or (5-vinyl-thiophene-2-yl)-benzoic acid. The derivatives were dissolved in dimethyl sulfoxide (DMSO; Amresco, USA) to 200 mM for use as stock solutions.
MICs of the derivatives for S. epidermidis and S. aureus were determined by the broth dilution method according to the National Committee for Clinical Laboratory (NCCLS) recommendations (Turnidge and Bordash [2007]). Twofold dilutions of the derivatives in tubes containing 4 ml of Mueller-Hinton broth (MH, Sigma, Germany) were made to concentrations from 200 to 0.39 μM. Overnight cultures of the bacteria were adjusted to the 0.5 McFarland standards and inoculated 1:200 into the MH broth and then incubated at 37 °C for 16–20 h. The lowest concentration inhibiting visible growth of the bacteria was recorded as minimal inhibitory concentration (MIC).

Cytotoxicity, MTT assay = format: cell-based; details: African green monkey, Vero 76 cells
Protocol: Vero 76 cells (African green monkey cells) were used to determine the cytotoxicity of the derivatives with the Cell Proliferation Kit I (MTT) (Roche, Indianapolis, USA). The Vero cells were grown in Dulbecco’s modified Eagle’s medium (DMEM), supplemented with 5 % fetal calf serum, 100 U/ml penicillin, […] streptomycin, and 2 mM L-glutamine. After culturing in 5 % CO2 at 37 °C for 48 h, the cells were harvested and dispensed into 96-well cell culture plates containing 5 × 10^4 cells per well in 100 μl. The cells were co-incubated with serial twofold dilutions of derivatives from 200 to 6.25 μM (six different concentrations) for 24 h at 37 °C in 5 % CO2. Then, 10 μl of the MTT labeling reagent (final concentration 0.5 mg/ml) was added to each well and incubated for 4 h. The solubilization solution (100 μl per well) was added to dissolve the purple formazan salts generated in the viable cells, and the absorbance of each well was measured at 595 nm. Cells treated with the solvent (0.1 % DMSO) were used as a negative control and the cells cultured only with DMEM medium served as a blank control. The inhibitory rate was calculated as follows: Inhibitoryrate%=Ocontrol−ODtest/ODcontrol×100
CC50 was defined as the concentration of the derivatives that inhibited the Vero cell growth by 50 % and was calculated with the Origin v8.0 software (Origin Lab, Northampton, USA) (Qin et al. [2006]).

[1] = test system: S. epidermidis ATCC 35984 biofilms; experiment: Microtiter plate assay of S. epidermidis biofilms (crystal violet, MBEC); format: cell-based; details: 6-h-old (immature) biofilms
Protocol: The effects of the derivatives on immature (6-h-old) biofilms and mature (24-h-old) biofilms of S. epidermidis ATCC 35984 were detected by using a semiquantitative microtiter plate assay (Stepanovic et al. [2007]). An overnight culture of bacteria was inoculated 1:200 into TSB medium containing 0.25 % glucose and statically incubated in a polystyrene 96-well plate (200 μl per well) at 37 °C for 6 or 24 h. The medium containing any nonadherent bacteria was then removed, and serial dilutions of derivatives in 200 μl fresh TSB were added to the wells and incubated for another 16 h at 37 °C. The wells were then washed gently three times with phosphate buffered saline (PBS), air-dried, fixed with methanol, and stained with 2 % (w/v) crystal violet. The staining was visually assessed and scanned at 570 nm using a 96-well plate spectrophotometer (DTX880, Beckman Coulter, USA), and the minimal biofilm eradication concentration (MBEC) was measured (Ceri et al. [1999]).

[2] = test system: S. epidermidis ATCC 35984; experiment: Derivatives combined with vancomycin or cefazolin (FIC index); format: cell-based; details: for MIC: Staphylococcus epidermidis, ATCC35984, line paired with vancomycin, read-out: MIC Derivative alone; for MIC Derivative alone: line paired with cefazolin
Excerpt: Combination antimicrobial therapy is widely used to take advantage of different mechanisms of action. It may potentiate the effect of individual antimicrobial agents by synergic action (Bijnsdorp et al. [2011]; Cokol et al. [2011]). The glycopeptide antibiotics, such as vancomycin, can bind the peptidoglycan side chains in the cell wall and prevent cross-linking during cell wall synthesis. Vancomycin has been considered to be one of the most reliable therapeutic agents against staphylococcal infections, but it is unable to clear biofilms even at high concentration (128 mg/l) (Climo et al. [1999]; Darouiche et al. [1994]; Tenover et al. [2001]). […] YycGF also plays an important role in the synthesis of peptidoglycan in B. subtilis and S. aureus (Bisicchia et al. [2007]; Dubrac and Msadek [2004]). In a preliminary study, we assessed the effects of the combined application of the derivatives with vancomycin and cefazolin against S. epidermidis ATCC 35984 according to the method of Odds ([2003]) (Cottagnoud et al. [2003]). […] No antagonism was observed between the derivatives and vancomycin or cefazolin (Table S1).
17 Table S1. The derivatives combined with vancomycin or cefazolin against S. epidermidis
Derivatives Antibiotics MIC (mg/L) FICIa Synergyb
Derivative Antibiotic In combination
alone alone (Derivative/Antibiotic)
19 a The FICI was calculated as FIC indexes= (MICderivative A in combination/MICderivative A
20 alone)+(MICantibiotic B in combination/MIC antibiotic B alone).
21 b The interaction between the two antibacterials is noted as follows: FIC index≤0.5,
22 Synergy (+); 0.5<FIC index≤4 (-), No interaction; FIC≥4.0, Antagonism.

[3] = cefazolin combined with the labelled derivative
[4] = derivative combined with cefazolin
[5] = derivative combined with vancomycin
[6] = vancomycin combined with the labelled derivative

Structure (SMILES): CCc1ccccc1/N=C1\S/C(=C\c2ccc(OCC(=O)O)c(OC)c2)C(=O)N1c1ccccc1CC [Compound 2, {2-{4-{3-(2-ethylphenyl)-2-[(2-ethylphenyl)imino]-4-oxothiazolidin-5-ylidene}methyl}-2-methoxyphenoxy}acetic acid]
- MIC (Clinical MRSA strains): 25 to 50 µM (≈ 12.9 to 25.8 µg/mL)
- CC50 at 24 h (Cytotoxicity, MTT assay): 50 µM
- MBEC [1]: 100.0 µM

Structure (SMILES): O=C(O)c1ccc(-c2ccc(C=C3SC(=Nc4ccc(F)cc4)N(c4ccc(F)cc4)C3=O)s2)cc1 [H2-60, 4-{5-{{3-(4-fluorophenyl)-2-[(4-fluorophenyl)imino]-4-oxothiazolidin-5-ylidene}methyl}thiophene-2-yl}benzoic acid]
- MIC (Clinical MRSA strains): 1.5 to 3.1 µM (≈ 0.778 to 1.61 µg/mL)
- MIC [2]: 1.7 µg/mL
- MIC In combination: antibiotic [2, 3]: 0.25 µg/mL
- FICI ([2]; derivative + cefazolin): 0.53
- FICI ([2]; derivative + vancomycin): 0.56
- MIC In combination: derivative [2, 4]: 0.85 µg/mL
- MIC In combination: derivative [2, 5]: 0.85 µg/mL
- MIC In combination: antibiotic [2, 6]: 0.25 µg/mL
- CC50 at 24 h (Cytotoxicity, MTT assay): > 200 µM
- MBEC [1]: 12.5 µM

Structure (SMILES): O=C(O)COc1ccc(C=C2SC(=Nc3ccc(Cl)cc3)N(c3ccc(Cl)cc3)C2=O)cc1 [H2-74, 2-{4-{[3-(4-chlorophenyl)-2-[(4-chlorophenyl)imino]-4-oxothiazolidin-5-ylidene}methyl}phenoxy}acetic acid]
- MIC (Clinical MRSA strains): 3.1 to 6.3 µM (≈ 1.55 to 3.15 µg/mL)
- MIC [2]: 0.8 µg/mL
- MIC In combination: antibiotic [2, 3]: 1 µg/mL
- FICI ([2]; derivative + cefazolin): 0.63
- FICI ([2]; derivative + vancomycin): 0.38
- MIC In combination: derivative [2, 4]: 0.4 µg/mL
- MIC In combination: derivative [2, 5]: 0.2 µg/mL
- MIC Derivative alone [2]: 0.8 µg/mL
- MIC In combination: antibiotic [2, 6]: 0.5 µg/mL
- CC50 at 24 h (Cytotoxicity, MTT assay): > 200 µM
- MBEC [1]: 50.0 µM

Structure (SMILES): O=C(O)c1cccc(-c2ccc(C=C3SC(=Nc4ccc(Cl)cc4)N(c4ccc(Cl)cc4)C3=O)o2)c1 [H2-38, 3-{5-{{3-(4-chlorophenyl)-2-[(4-chlorophenyl)imino]-4-oxothiazolidin-5-ylidene}methyl}furan-2-yl}benzoic acid]
- MIC (Clinical MRSA strains): 1.5 to 3.1 µM (≈ 0.803 to 1.66 µg/mL)
- MIC [2]: 0.8 µg/mL
- MIC In combination: antibiotic [2, 3]: 0.5 µg/mL
- FICI ([2]; derivative + cefazolin): 0.56
- FICI ([2]; derivative + vancomycin): 0.63
- MIC In combination: derivative [2, 4]: 0.4 µg/mL
- MIC In combination: derivative [2, 5]: 0.4 µg/mL
- MIC Derivative alone [2]: 0.8 µg/mL
- MIC In combination: antibiotic [2, 6]: 0.5 µg/mL
- CC50 at 24 h (Cytotoxicity, MTT assay): > 200 µM
- MBEC [1]: 12.5 µM

Structure (SMILES): O=C(O)c1ccc(-c2ccc(/C=C3\S/C(=N\c4ccccc4)N(c4ccc(F)cc4)C3=O)s2)cc1 [H2-81, 4-{5-{{3-(4-fluorophenyl)-2-[(4-phenyl)imino]-4-oxothiazolidin-5-ylidene}methyl}thiophene-2-yl}benzoic acid]
- MIC (Clinical MRSA strains): 1.5 µM (≈ 0.751 µg/mL)
- interaction with vancomycin or cefazolin (in words) ([2]; S. epidermidis ATCC 35984, preliminary study): synergistic effect
- MIC [2]: 0.7 µg/mL
- MIC In combination: antibiotic [2, 3]: 1 µg/mL
- FICI ([2]; derivative + cefazolin): 0.38
- FICI ([2]; derivative + vancomycin): 0.5
- MIC In combination: derivative [2, 4]: 0.18 µg/mL
- MIC In combination: derivative [2, 5]: 0.18 µg/mL
- MIC Derivative alone [2]: 0.7 µg/mL
- MIC In combination: antibiotic [2, 6]: 1 µg/mL
- CC50 at 24 h (Cytotoxicity, MTT assay): > 200 µM
- MBEC [1]: 6.3 µM

Structure (SMILES): O=C(O)c1ccc(-c2ccc(C=C3SC(=Nc4ccc(Cl)cc4)N(c4ccc(Cl)cc4)C3=O)o2)cc1 [H2-39, 4-{5-{{3-(4-chlorophenyl)-2-[(4-chlorophenyl)imino]-4-oxothiazolidin-5-ylidene}methyl}furan-2-yl}benzoic acid]
- MIC (Clinical MRSA strains): 1.5 to 3.1 µM (≈ 0.803 to 1.66 µg/mL)
- MIC [2]: 0.8 µg/mL
- MIC In combination: antibiotic [2, 3]: 0.25 µg/mL
- FICI ([2]; derivative + cefazolin): 0.53
- FICI ([2]; derivative + vancomycin): 1.13
- MIC In combination: derivative [2, 4]: 0.4 µg/mL
- MIC In combination: derivative [2, 5]: 0.8 µg/mL
- MIC Derivative alone [2]: 0.8 µg/mL
- MIC In combination: antibiotic [2, 6]: 0.5 µg/mL
- CC50 at 24 h (Cytotoxicity, MTT assay): > 200 µM
- MBEC [1]: 12.5 µM

Structure (SMILES): O=C(O)c1ccc(-c2ccc(/C=C3\S/C(=N\c4ccccc4)N(c4ccc(Cl)cc4)C3=O)o2)cc1 [H2-57, 4-{5-{{3-(4-chlorophenyl)-2-[(4-phenyl)imino]-4-oxothiazolidin-5-ylidene}methyl}furan-2-yl}benzoic acid]
- MIC (Clinical MRSA strains): 1.5 to 3.1 µM (≈ 0.751 to 1.55 µg/mL)
- MIC [2]: 1.7 µg/mL
- MIC In combination: antibiotic [2, 3]: 0.25 µg/mL
- FICI ([2]; derivative + cefazolin): 0.53
- FICI ([2]; derivative + vancomycin): 1.13
- MIC In combination: derivative [2, 4]: 0.85 µg/mL
- MIC In combination: antibiotic [2, 6]: 0.5 µg/mL
- CC50 at 24 h (Cytotoxicity, MTT assay): > 200 µM
- MBEC [1]: 12.5 µM
